According to PubChem BioAssay (NCI):
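48-hour exposure; five concentrations; linearly interpolated endpoints. The concentration for 50% growth inhibition is given as GI50. TGI: concentration producing complete growth inhibition.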

Experiments:
Test in all cases: NCI anticancer screen, dose series, 48 h
MDA-MB-231 breast = tested on: MDA-MB-231 breast
MDA-MB-435 = tested on: MDA-MB-435
NCI-H23 lung = tested on: NCI-H23 lung
SK-MEL-5 melanoma = tested on: SK-MEL-5 melanoma
M14 melanoma = tested on: M14 melanoma
OVCAR-5 ovarian = tested on: OVCAR-5 ovarian
COLO 205 colon = tested on: COLO 205 colon
NCI-H460 lung = tested on: NCI-H460 lung

SMILES	GI50 (MDA-MB-231 breast)	TGI (MDA-MB-231 breast)	GI50 (MDA-MB-435)	TGI (MDA-MB-435)	GI50 (NCI-H23 lung)	TGI (NCI-H23 lung)	GI50 (SK-MEL-5 melanoma)	TGI (SK-MEL-5 melanoma)	GI50 (M14 melanoma)	TGI (M14 melanoma)	GI50 (OVCAR-5 ovarian)	TGI (OVCAR-5 ovarian)	GI50 (COLO 205 colon)	TGI (COLO 205 colon)	GI50 (NCI-H460 lung)	TGI (NCI-H460 lung)
Cc1cc(I)cc(CNCCN(C)C)c1O	> 59.5 µM	> 100 µM	37.1 µM	> 100 µM	97.3 µM	> 100 µM	27.9 µM	> 80.8 µM	33.9 µM	> 100 µM	> 100 µM	> 100 µM	> 100 µM	> 100 µM	44.1 µM	> 100 µM
Nc1ccc(/C=C/c2ccc3ncccc3c2)cc1	2.09 µM	> 100 µM	> 100 µM	> 100 µM	> 100 µM	> 100 µM	> 100 µM	> 100 µM	> 100 µM	> 100 µM	> 100 µM	> 100 µM	> 100 µM	> 100 µM	> 100 µM	> 100 µM
Sc1cccc2cccnc12	1.36 µM	14.7 µM	2.66 µM	20.5 µM	1.91 µM	16.8 µM	0.822 µM	4.25 µM	0.457 µM	6.09 µM	4.1 µM	17.7 µM	2.32 µM	9.38 µM	0.389 µM	6.23 µM
O=[N+]([O-])c1ccc(C2=NCCO2)cc1	> 100 µM	> 100 µM	> 100 µM	> 100 µM	> 100 µM	> 100 µM	> 100 µM	> 100 µM	> 100 µM	> 100 µM	> 100 µM	> 100 µM	> 100 µM	> 100 µM	> 100 µM	> 100 µM
Cn1cc(C2=C(c3ccsc3)C(=O)NC2=O)c2ccccc21	> 25 µM	> 25 µM	> 25 µM	> 25 µM	> 25 µM	> 25 µM	> 25 µM	> 25 µM	> 25 µM	> 25 µM	> 25 µM	> 25 µM	> 25 µM	> 25 µM	> 25 µM	> 25 µM
O=C1NN2CC(c3ccccc3)=NN=C2c2ccccc21	26.4 µM	79.1 µM	36.7 µM	> 100 µM	17.7 µM	38.7 µM	26.8 µM	67.2 µM	21.9 µM	48.9 µM	37.9 µM	> 100 µM	20.3 µM	41 µM	30.3 µM	92.6 µM
C=C(CO)C(=O)OC1CC(=C)C2CC(O)C(C)C2C2OC(=O)C(=C)C12 (stereo not given)		36.2 µM		45.2 µM		> 100 µM		50.9 µM		33.4 µM		> 100 µM		90.4 µM		> 100 µM
CN1CCN(Cc2ccc(NC(=O)c3cncc(C#Cc4cnc(N)c5ncccc45)c3)cc2C(F)(F)F)CC1	0.147 µM	0.71 µM	0.247 µM	1.44 µM	0.284 µM	6.26 µM	0.432 µM	1.59 µM	0.0698 µM	1.14 µM	0.372 µM	1.78 µM	0.231 µM	1.66 µM	0.261 µM	1.59 µM
ClC1=C(Cl)C(Cl)(C2(Cl)C(Cl)=C(Cl)C(Cl)=C2Cl)C(Cl)=C1Cl	0.383 µM	1.42 µM	0.67 µM	2.13 µM	0.865 µM	3.1 µM	1.27 µM	2.73 µM	0.252 µM	0.716 µM	1.22 µM	2.76 µM	0.202 µM	0.462 µM	1.89 µM	3.8 µM
CNC(=O)Oc1cc(C(C)C)ccc1Sc1ccc(C(C)C)cc1OC(=O)NC	5.48 µM	19.4 µM	2.29 µM	10 µM	6.5 µM	23.6 µM	2.5 µM	11.8 µM	3.61 µM	16.3 µM	11.4 µM	25.7 µM	14.4 µM	28.8 µM	2.44 µM	11 µM
CN(C)CCNC(=O)c1cc2c3cc(Cl)ccc3[nH]c2c2ncccc12	1.98 µM	9.77 µM	1.95 µM	4.22 µM	6.31 µM	23.4 µM	1.34 µM	2.69 µM	1.7 µM	3.68 µM	11.9 µM	27.4 µM	1.97 µM	10.5 µM	2.57 µM	10.7 µM
O=C(O)c1ccc(N(/C=C/C(=O)C(F)(F)F)Cc2ccc(Cl)cc2)cc1	18.6 µM	48.2 µM	35.5 µM	> 100 µM	24.7 µM	64.8 µM	25 µM	81.1 µM	22.7 µM	62.7 µM	44.6 µM	> 100 µM	36.7 µM	> 100 µM	> 100 µM	> 100 µM
CC(C)(C)CC(C)(C)c1ccc(OCCO)cc1	4.43 µg/mL	15.7 µg/mL	6.26 µg/mL	18.6 µg/mL	1.33 µg/mL	20.9 µg/mL	0.89 µg/mL	7.63 µg/mL	9.29 µg/mL	20.6 µg/mL	11.9 µg/mL	27.5 µg/mL	4.69 µg/mL	15.4 µg/mL	2.95 µg/mL	16.4 µg/mL
COc1cccc2c1nc(C(F)F)n2-c1nc(-c2ccc(NS(=O)(=O)CCN(C)C)cc2)nc(N2CCOCC2)n1	0.617 µM	37.2 µM	0.132 µM	7.2 µM	0.206 µM	23.3 µM	0.204 µM	1.76 µM	0.243 µM	> 100 µM	0.0909 µM	17.3 µM	0.0908 µM	2.64 µM	0.0883 µM	1.33 µM
C=CC1(C)CCC2C(=CCC3C2(C)CC(O)C(O)C3(C)COC2OC(CO)C(O)C(O)C2O)C1 (stereo not given)		> 100 µM		> 100 µM		> 100 µM		> 100 µM		> 100 µM		> 100 µM		> 100 µM		> 100 µM
O=C(/C=C\c1ccc(O)c(O)c1)c1ccccc1O	9.51 µM	37 µM	6.45 µM	39.4 µM	12.7 µM	32.8 µM	11.4 µM	28.4 µM	12.9 µM	29.9 µM	18 µM	40.4 µM	8.99 µM	21.6 µM	15.1 µM	49.8 µM

SMILES	GI50 (MDA-MB-231 breast)	TGI (MDA-MB-231 breast)	GI50 (MDA-MB-435)	TGI (MDA-MB-435)	GI50 (NCI-H23 lung)	TGI (NCI-H23 lung)	GI50 (SK-MEL-5 melanoma)	TGI (SK-MEL-5 melanoma)	GI50 (M14 melanoma)	TGI (M14 melanoma)	GI50 (OVCAR-5 ovarian)	TGI (OVCAR-5 ovarian)	GI50 (COLO 205 colon)	TGI (COLO 205 colon)	GI50 (NCI-H460 lung)	TGI (NCI-H460 lung)
CC(C)=CCc1cc2c(cc1O)C1=C(C(=O)C3=C(NCCS3(=O)=O)C1=O)C(C=C(C)C)O2 (stereo not given)	4.18 µM	16.2 µM	2.89 µM	5.6 µM	5.8 µM	> 16.7 µM	3.35 µM	6.95 µM	5.85 µM	> 16.7 µM	> 16.7 µM	> 16.7 µM	5.53 µM	> 16.7 µM	5.35 µM	> 16.7 µM
CN1C(=O)C(c2c[nH]c3ccccc23)=C(c2c[nH]c3ccccc23)C1=O	4.22 µM	15.8 µM	5.49 µM	16.2 µM	6.61 µM	> 25 µM	4.5 µM	10.9 µM	5.96 µM	17.2 µM	9.88 µM	> 25 µM	4.77 µM	12.4 µM	5.52 µM	15 µM
NS(=O)(=O)c1ccc(N(/C=C/C(=O)C(F)(F)F)CC(=O)c2ccc(F)cc2)cc1	20.9 µM	42 µM	26.5 µM	79.6 µM	20.4 µM	57.7 µM					28.8 µM	74.4 µM	20.5 µM	41.6 µM	28.1 µM	> 100 µM
O=C1NC(=O)C(c2c[nH]c3ccccc23)=C1c1c[nH]c2ccccc12	12.6 µM	> 25 µM	6.86 µM	> 25 µM	14.7 µM	> 25 µM	5.96 µM	20.2 µM	10.9 µM	> 25 µM	> 25 µM	> 25 µM	9.18 µM	> 25 µM	10.6 µM	> 25 µM
CCCCn1c(=O)[nH]c(N)c([C@@H]2c3c([nH]c(=O)n(CCCC)c3=O)Oc3ccc4ccccc4c32)c1=O	1.85 µM	4.58 µM	1.7 µM	3.11 µM	1.73 µM	3.7 µM	3.06 µM	10.7 µM	1.92 µM	4.2 µM	3.63 µM	13.8 µM	2 µM	4.03 µM	2.19 µM	5.05 µM
C/C(=C\C(=O)O[C@H]1[C@@H]2[C@H](C)CC[C@H]2[C@]2(C)O[C@@]1(C1CCCCC1)C[C@H]2OC(=O)CO)c1ccccc1	6.67 µM	13 µM	6.84 µM	12.9 µM	6.87 µM	13.9 µM	6.45 µM	11.9 µM	7.95 µM	18.1 µM	7 µM	12.9 µM	7.61 µM	15 µM	6.86 µM	14.1 µM
COC(=O)[C@@H](C)C[C@H](Cc1ccccc1)NC(=O)c1nc([C@@H](C[C@H](C(C)C)N(C)C(=O)[C@@H](NC(=O)[C@H]2C[C@H](O)CCN2C)C(C)C)OC(C)=O)sc1C(C)C	0.0067 µM	0.458 µM	< 0.00111 µM	0.00288 µM	0.0232 µM	> 11.1 µM	0.00369 µM	0.185 µM	0.0149 µM	1.24 µM	0.0428 µM	> 11.1 µM	0.00692 µM	0.104 µM	0.0076 µM	> 11.1 µM
CCC(=C(c1ccc(OCCN2CCCCC2)cc1)c1ccc(OCCN2CCCCC2)cc1)c1ccc(Cl)cc1	5.35 µM	> 16.7 µM	2.61 µM	5.39 µM	> 16.7 µM	> 16.7 µM	2.83 µM	5.3 µM	0.669 µM	2.65 µM	> 16.7 µM	> 16.7 µM	3.59 µM	9.01 µM	5.7 µM	> 16.7 µM
CCN1CCN(CCC(=O)Nc2cccc(-n3cc(-c4ccncc4)c(-c4ccc(Cl)c(OC)c4)n3)c2)CC1	1.21 µM	2.92 µM	0.123 µM	0.35 µM	1.04 µM	3.56 µM	0.507 µM	1.83 µM	0.387 µM	1.73 µM	1.42 µM	4.84 µM			0.361 µM	1.37 µM
CC(=O)/C(=C\c1ccc(Cl)cc1)c1ccccc1	0.212 µM	> 100 µM			0.26 µM	> 100 µM	0.0818 µM	1.14 µM				> 100 µM	0.141 µM	0.474 µM	0.0845 µM	13.5 µM
Cc1c(Cl)cccc1C(=O)Nc1nc2c(s1)CN(C(=O)Nc1cccc(C(F)(F)F)c1)CC2	0.59 µM	> 35.6 µM			0.234 µM	> 50 µM	0.182 µM	3.75 µM	0.167 µM	> 50 µM	0.603 µM	> 50 µM	0.174 µM	4.36 µM	0.182 µM	> 17.4 µM
N#CCCNc1nonc1-c1nc2ccccc2n1CC(=O)c1ccc(N)cc1			< 0.01 µM	< 0.0166 µM	0.0312 µM	> 100 µM	0.0271 µM	0.123 µM	0.0249 µM	> 100 µM	0.0593 µM	> 100 µM	0.022 µM	0.0477 µM	0.0317 µM	> 32.9 µM
Cn1cc(C2NC(=O)c3ccccc3N2)c2ccccc21 (stereo not given)		> 100 µM		> 100 µM		> 100 µM		5.64 µM		> 65.8 µM		> 100 µM				> 42.8 µM
O=C(NCc1cn(Cc2cccc(Oc3ccccc3)c2)nn1)c1cccnc1Nc1ccc(F)cc1	14.5 µM	> 100 µM			52.1 µM	> 100 µM	4.48 µM	38.8 µM	13.7 µM	> 100 µM	> 100 µM	> 100 µM	6.22 µM	> 100 µM	5.25 µM	> 100 µM
COc1ccc(-c2csc3c2-n2cccc2C3=O)cc1		> 100 µM				> 100 µM	0.0236 µM				0.0946 µM	> 100 µM		5.78 µM	0.273 µM	> 43 µM
O=S(=O)(NCCCNc1cc(-c2cn(-c3ccccc3)nc2-c2cccc(O)c2)ccn1)c1ccc(C(F)(F)F)cc1			1.74 µM	3.46 µM	1.65 µM	3.94 µM	1.56 µM	2.97 µM	1.66 µM	3.24 µM	1.92 µM	5.16 µM	1.78 µM	3.54 µM	1.86 µM	3.86 µM
